Where “and” joins values, the source holds several entries; their conditions need not be identical. Equal values may be shown once.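 Exposure lasted 48 hours, with cells grown in 96-well plates and compounds tested at five concentrations. Here, GI50 denotes the concentration required for 50% inhibition of growth. TGI marks complete inhibition of growth.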
Tests used:
Assay in all cases: NCI-60 cell line screen, 48 h
[1] = test system: 786-0 renal
[2] = test system: M14 melanoma
[3] = test system: MCF7 breast
[4] = test system: MDA-MB-231 breast
[5] = test system: NCI-H226 lung
[6] = test system: NCI-H460 lung
[7] = test system: OVCAR-8 ovarian
[8] = test system: SF-268 CNS
[9] = test system: SK-MEL-28 melanoma
[10] = test system: SW-620 colon

Structure (SMILES)	GI50 [1] [µM]	TGI [1]	GI50 [2] [µM]	TGI [2] [µM]	GI50 [3] [µM]	TGI [3]	GI50 [4] [µM]	TGI [4] [µM]	GI50 [5] [µM]	TGI [5] [µM]	GI50 [6]	TGI [6] [µM]	GI50 [7]	TGI [7]	GI50 [8] [µM]	TGI [8] [µM]	GI50 [9] [µM]	TGI [9]	GI50 [10] [µM]	TGI [10]
CCOC(=O)[C@@H](N)CCC(=O)N[C@@H](CSCc1ccccc1)C(=O)N[C@@H](C(=O)OCC)c1ccccc1	17.7	33.7 µM	19	37.2	16.5	33.9 µM	18.1	34.1	16.4	37.5	27.1 µM	> 69.8	16.8 µM	32.5 µM	16.6	31.3	16.7	31.7 µM	20.7	49.2 µM
CN(C)C(=O)c1cc2cnc(Nc3ccc(-c4csc5c(=S)cc(N6CCOCC6)oc45)cc3)nc2n1C1CCCC1	0.63	> 50 µM	0.838	> 50	0.235	2.44 µM	0.249	> 50	0.405	> 11.9	0.585 µM	> 50	0.744 µM	> 50 µM	0.693	> 50	0.752	> 50 µM	0.604	> 50 µM
NCC1Nc2ccccc2[C@@H](O)C1O (some centres undefined)	–	> 100 µM	–	> 100	–	> 100 µM	–	> 100	–	> 100	–	> 100	–	> 100 µM	–	> 100	–	> 100 µM	–	> 100 µM
Clc1ccc(C2=Nn3c(COc4ccccc4Cl)nnc3SC2)c(Cl)c1	25.6	65.4 µM	16.4	41.4	11	> 100 µM	18.5	48.6	14.6	41.6	24.2 µM	> 100	29.6 µM	> 100 µM	31.8	> 100	17	53.9 µM	18.5	> 100 µM
OC[C@H]1CCCC1O (some centres undefined)	–	> 100 µM	–	> 100	–	> 100 µM	–	> 100	–	> 100	–	> 100	–	> 100 µM	–	> 100	–	> 100 µM	–	> 100 µM
CCCCCCCC/C=C/CCCCCCCC(=O)OC[C@H]1O[C@@H](n2ccc(N)nc2=O)C(F)(F)[C@@H]1O	< 0.0139	2.56 µM	< 0.0115	0.0273	< 0.01	> 100 µM	7.98	> 100	0.333	> 61.3	< 0.0212 µM	> 33.4	< 0.01 µM	–	< 0.0224	19.7	> 51.1	> 100 µM	0.0759	> 100 µM
NP(=O)(Oc1c2occc2cc2ccc(=O)oc12)N(CCCl)CCCl (centres undefined)	–	> 100 µM	–	> 100	–	> 100 µM	–	> 100	–	> 100	–	> 100	–	> 100 µM	–	> 100	–	> 100 µM	–	> 100 µM
Oc1ccccc1C(Sc1nc2ccccc2s1)Sc1nc2ccccc2s1	–	> 100 µM	–	> 100	–	> 100 µM	–	> 100	–	> 100	–	> 100	–	> 100 µM	–	> 100	–	> 100 µM	–	> 100 µM
COc1ccc(Cn2cc3c(c2-c2ccccc2)CC(C)(C)c2cnoc2-3)cc1	4.1	> 100 µM	2.03	> 100	0.87	> 100 µM	3.46	> 100	4.19	> 100	2.17 µM	> 100	4.66 µM	> 100 µM	3.92	> 100	6.86	> 100 µM	0.806	> 100 µM
COc1nc2ccccc2cc1-c1nc2c(cnn2-c2ccc(Br)cc2)c(=O)[nH]1	0.0403	8.6 µM	0.0204	2.33	0.0201	> 50 µM	0.133	> 27.4	0.51	> 50	0.0241 µM	> 50	0.0577 µM	> 50 µM	0.131	> 50	0.361	> 50 µM	0.0228	> 50 µM
COc1cc2c(c(OC)c1OC)-c1ccc(OC)c(=O)cc1[C@@H](NC(=O)c1ccccc1)CC2	0.0114	30 µM and 47.5 µM	–	8.46	< 0.003	30 µM and > 7.65 µM	–	15.7	–	1.89	0.00614 µM and < 0.0126 µM	–	0.00935 µM and 0.0138 µM	30 µM and 13.8 µM	–	33.1	< 0.003	30 µM and > 100 µM	< 0.003	30 µM and > 81.4 µM
N=C1C(c2nc3ccccc3s2)=C(O)CN1c1cc(C(F)(F)F)ccc1Cl	38.1	> 100 µM	3.21	11.1	16.9	92.1 µM	12.1	95.7	2.75	28.5	13.3 µM	77.9	32.9 µM	> 100 µM	28.8	> 100	69	> 100 µM	36.4	> 100 µM
N#CC(NNC(=O)Cc1ccccc1)c1c(O)ccc2ccccc12 (centres undefined)	–	39.2 µM	–	21.1	–	14.3 µM	–	58.9	–	47.3	–	> 77.5	–	52.2 µM	–	54.5	–	97.7 µM	–	> 100 µM
CN1C/C=C\CCOc2cccc(c2)-c2ccnc(n2)Nc2cccc(c2)C1	0.0568	0.802 µM	0.0644	0.346	0.0354	1.23 µM	0.0591	0.859	0.0692	1.3	0.0398 µM	1.14	0.0385 µM	0.887 µM	0.0561	0.548	0.0641	0.451 µM	0.0439	4.49 µM

Reference: PubChem BioAssay (NCI)
